Laboratory results taken from patent US11247981B2, “Metalloenzyme inhibitor compounds” (Mycovia Pharmaceuticals, Inc., priority 2012, dated 2022).
Converted amounts (≈) assume the structure as drawn.

Test system: C. albicans
Assay: Minimum Inhibitory Concentration (MIC), CLSI M27-A2
Assay type: cell-based
Conditions: Candida albicans, rating scale in μg/mL
Procedure: A. Minimum Inhibitory Concentration (MIC) Compounds were assessed for their ability to inhibit the growth of common strains of fungus, C. albicans using a standardized procedure (CLSI M27-A2). Stock solutions of the test compounds and standards were prepared in DMSO at 1,600 μg/mL (C. albicans). Eleven, serial, one-half dilutions of compounds were prepared in 96-well plates in RPMI+MOPS. The assay concentration ranges were 8-0.001 μg/mL (C. albicans). Cell suspensions of C. albicans were prepared and added to each well at concentrations of approximately 3.7×10^3 colony-forming-units per milliliter (cfu/mL). All testing was in duplicate. The inoculated plates were incubated for approximately 48 h at 35±1° C. At the completion of incubation the wells of each plate were evaluated visually for the presence of fungal growth. […] For QC purposes C. krusei isolate ATCC 6258 (4.0×10^3 cfu/mL) was included in the VOR assay.

SMILES	MIC
CC(F)(c1ccc(-c2ccc(F)cc2)cn1)C(O)(Cn1cnnn1)c1ccc(F)cc1F (centres unmarked) [Example 50, 2-(2,4-Difluorophenyl)-3-fluoro-3-(5-(4-fluorophenyl)pyridin-2-yl)-1-(1H-tetrazol-1-yl)butan-2-ol]	1.5 to 4 µg/mL (≈ 3.38 to 9.02 µM)

Same assay, conditions: rating scale in μg/mL

SMILES	Candida MIC Rating
OC(Cn1cnnn1)(c1ccc(F)cc1F)C(F)(F)c1ccc(-c2ccc(OCC(F)(F)F)cc2)cn1 (centres unmarked) [Example 11, 2-(2,4-Difluorophenyl)-1,1-difluoro-3-(1H-tetrazol-1-yl)-1-(5-(4-(2,2,2-trifluoroethoxy)phenyl)pyridin-2-yl)propan-2-ol]	A (≤0.5)
CC(F)(c1ccc(-c2ccc(C(F)(F)F)cc2)cn1)C(O)(Cn1cnnn1)c1ccc(F)cc1F (centres unmarked) [Example 52]	C (>1.5 − 4)
CC(F)(c1ccc(-c2ccc(OCC(F)(F)F)cc2)cn1)C(O)(Cn1cnnn1)c1ccc(F)cc1F (centres unmarked) [Example 57, 2-(2,4-Difluorophenyl)-3-fluoro-1-(1H-tetrazol-1-yl)-3-(5-(4-(2,2,2-trifluoroethoxy)phenyl)pyridin-2-yl)butan-2-ol]	A (≤0.5)
CC(F)(c1ccc(-c2ccc(C(F)(F)F)cc2)cn1)C(O)(Cn1cnnn1)c1ccc(F)cc1F (centres unmarked) [Example 53]	B (>0.5 − 1.5)
CC(F)(c1ccc(-c2ccc(Cl)cc2)cn1)C(O)(Cn1cnnn1)c1ccc(F)cc1F (centres unmarked) [Example 55, 3-(5-(4-Chlorophenyl)pyridin-2-yl)-2-(2,4-difluorophenyl)-3-fluoro-1-(1H-tetrazol-1-yl)butan-2-ol]	A (≤0.5)
CC(F)(c1ccc(-c2ccc(OCC(F)(F)F)cc2)cn1)C(O)(Cn1cnnn1)c1ccc(F)cc1F (centres unmarked) [Example 56, 2-(2,4-Difluorophenyl)-3-fluoro-1-(1H-tetrazol-1-yl)-3-(5-(4-(2,2,2-trifluoroethoxy)phenyl)pyridin-2-yl)butan-2-ol]	C (>1.5 − 4)
CC(F)(c1ccc(-c2ccc(OC(F)(F)F)cc2)cn1)C(O)(Cn1cnnn1)c1ccc(F)cc1F (centres unmarked) [Example 47, 2-(2,4-Difluorophenyl)-3-fluoro-1-(1H-tetrazol-1-yl)-3-(5-(4-(trifluoromethoxy)phenyl)-pyridin-2-yl)butan-2-ol]	A (≤0.5)
CC(F)(c1ccc(-c2ccc(Cl)cc2)cn1)C(O)(Cn1cnnn1)c1ccc(F)cc1F (centres unmarked) [Example 54, 3-(5-(4-Chlorophenyl)pyridin-2-yl)-2-(2,4-difluorophenyl)-3-fluoro-1-(1H-tetrazol-1-yl)butan-2-ol]	C (>1.5 − 4)
CC(F)(c1ccc(-c2ccc(F)cc2)cn1)C(O)(Cn1cnnn1)c1ccc(F)cc1F (centres unmarked) [Example 51, 2-(2,4-Difluorophenyl)-3-fluoro-3-(5-(4-fluorophenyl)pyridin-2-yl)-1-(1H-tetrazol-1-yl)butan-2-ol]	A (≤0.5)
OC(Cn1cnnn1)(c1ccc(F)cc1F)C(F)(F)c1ccc(-c2ccc(OCC(F)(F)F)cc2)cn1 (centres unmarked) [Example 39, 2-(2,4-Difluorophenyl)-1,1-difluoro-3-(1H-tetrazol-1-yl)-1-(5-(4-(2,2,2-trifluoroethoxy)phenyl)pyridin-2-yl)propan-2-ol]	C (>1.5 − 4)
